Our source for the EC50 values is PMC8307317, “Point-Substitution of Phenylalanine Residues of 26RFa Neuropeptide: A Structure-Activity Relationship Study” (Molecules, 2021).

Starred links: 1 amine or outer side, 2 acyl side, 3 side chain; linkers in the order of their positions; H or OH if unused. Positions of bridges follow the written chain, without caps; N, C: chain ends. Non-standard residues stand in square brackets, D forms with d. Residues, ends and D or L forms follow the SMILES beside them. *: point of attachment. Ahppa(3S,4S) = O=C(C[C@H](O)[C@H](Cc1ccccc1)N[*:1])[*:2]; Oic = O=C(O)[C@@H]1C[C@@H]2CCCC[C@@H]2N1; X9 = NC(=O)C[C@H](O)[C@H](Cc1ccccc1)N*; X3 = O=C(C(c1cccc(F)c1)N1CCNCC1)*; X6 = O=C(C(c1ccc(F)cc1)N1CCNCC1)*; Tic = O=C(O)[C@@H]1Cc2ccccc2CN1; X8 = O=C(C(c1ccccc1F)N1CCNCC1)*; dTic = O=C(O)[C@H]1Cc2ccccc2CN1; X2 = O=C(C(c1ccccc1)N1CCNCC1)*; Nphe = O=C(O)CNCc1ccccc1 Bounds are passed on as bounds.

One assay deals with T1, human QRFPR (hQRFPR) (Homo sapiens, UniProt Q96P65).
T1 construct: expressed in transfected cells; host or cells: CHO cells, stably transfected with hQRFPR (G418 selection) and Gα16 (hygromycin B selection)
T1 sequence (Q96P65 1-431): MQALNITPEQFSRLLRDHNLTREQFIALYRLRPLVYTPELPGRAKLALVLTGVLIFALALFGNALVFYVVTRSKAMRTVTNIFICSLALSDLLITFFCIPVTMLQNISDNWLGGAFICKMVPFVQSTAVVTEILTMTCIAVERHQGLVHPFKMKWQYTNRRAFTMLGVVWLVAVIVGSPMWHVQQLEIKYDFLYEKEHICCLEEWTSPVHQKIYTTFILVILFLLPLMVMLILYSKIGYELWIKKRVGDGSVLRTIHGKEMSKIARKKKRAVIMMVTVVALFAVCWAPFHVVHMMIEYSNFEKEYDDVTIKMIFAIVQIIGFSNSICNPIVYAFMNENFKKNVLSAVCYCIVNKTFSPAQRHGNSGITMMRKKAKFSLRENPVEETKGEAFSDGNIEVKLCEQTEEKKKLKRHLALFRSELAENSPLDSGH
Briefly: Calcium mobilization assay, agonist mode ([Ca2+]i in Gα16-hQRFPR-transfected CHO cells). In kind it is cell-based. As to conditions: [Ca2+]i mobilization in Gα16-hQRFPR-transfected CHO cells; mean of at least three independent experiments performed in triplicate; read-out: EC50. The procedure:
Stably transfected hQRFPR CHO cells were obtained as previously described. The cells were maintained in F-12 nutrient mixture (Ham-F12) medium supplemented with 10% fetal bovine serum, 2 mM glutamine, and penicillin-streptomycin. Expression of Gα16 cells was maintained using selection antibiotic hygromycin B (200 µg/mL) and that of hQRFPR using geneticin G418 (500 µg/mL) (Life Technologies, Villebon-Sur-Yvette, France) in a humidified 5% CO2 atmosphere at 37 °C.
Changes in intracellular Ca^2+ concentrations induced by 26RFa(20–26) analogs in CHO-Gα16-hQRFPR-transfected cells were measured on a benchtop scanning fluorometer Flexstation III (Molecular Devices, Sunnyvale, CA, USA) as previously described. Briefly, 96-well assay black plates with clear bottoms (Corning international, Avon, France) were seeded at a density of 40,000 cells/well 24 h prior to assay. For profiling agonistic experiments, cells were loaded with 2 µM Fluo-4 acetoxymethyl ester (AM) (Invitrogen) for 1 h in the presence of 0.01% pluronic acid, washed thrice, and incubated for 30 min with standard HBSS containing 2.5 mM probenecid and 5 mM HEPES. Compounds to be tested were added at final concentrations ranging from 10^−11 to 10^−5 M in HBSS, and the fluorescence intensity was measured during 3 min. To evaluate the antagonistic potency of the test compounds, cells were incubated with each compound over 15 min after Fluo-4 AM loading. Then, during fluorescence recording, a pulse of 26RFa was administered at a final concentration of 10^−7 M. After subtraction of the mean fluorescence background, the baseline was normalized to 100%. Fluorescence peak values were determined for each concentration of compound.
Calcium experiments were performed in triplicate, and data, expressed as mean ± SEM of at least three distinct experiments, were analyzed with the Prism 8.0 software (Graphpad Software, San Diego, CA, USA). EC50 and the IC50 values were determined from concentration–response curves using a sigmoidal dose–response fit with variable slope from at least three independent determinations. Differences between 26RFa(20–26) and analog activities were analyzed by the Mann–Whitney test. p values < 0.05 were considered significant.
On to `N=C(N)NCCC[C@H](NC(=O)[C@H](Cc1ccccc1)NC(=O)[C@H](CO)NC(=O)[C@H](Cc1ccccc1)NC(=O)CNC(=O)CN)C(=O)N1Cc2ccccc2C[C@H]1C(N)=O` [Compound 30, [Tic^26]26RFa(20–26)] (H-GGFSFR[Tic]-NH2), for which the EC50 amounted to 7.7 µM. In the case of `N=C(N)NCCC[C@H](NC(=O)[C@H](Cc1ccccc1)NC(=O)[C@H](CO)NC(=O)CN(Cc1ccccc1)C(=O)CNC(=O)CN)C(=O)N[C@@H](Cc1ccccc1)C(N)=O` [Compound 31, [NPhe^22]26RFa(20–26)] (H-GG[Nphe]SFRF-NH2), the EC50 was found to be 0.578 µM. Still for that read-out and setting: for `N=C(N)NCCC[C@H](NC(=O)CN(Cc1ccccc1)C(=O)[C@H](CO)NC(=O)[C@H](Cc1ccccc1)NC(=O)CNC(=O)CN)C(=O)N[C@@H](Cc1ccccc1)C(N)=O` [Compound 32, [NPhe^24]26RFa(20–26)] (H-GGFS[Nphe]RF-NH2) the value was more than 10 µM; for `N=C(N)NCCC[C@H](NC(=O)[C@H](Cc1ccccc1)NC(=O)[C@H](CO)NC(=O)[C@H](Cc1ccccc1)NC(=O)CNC(=O)CN)C(=O)N(CC(N)=O)Cc1ccccc1` [Compound 33, [NPhe^26]26RFa(20–26)] (H-GGFSFR[Nphe]-NH2), more than 10 µM; for `N=C(N)NCCC[C@H](NC(=O)[C@H](Cc1ccccc1)NC(=O)[C@H](CO)NC(=O)C[C@H](O)[C@H](Cc1ccccc1)NC(=O)CNC(=O)CN)C(=O)N[C@@H](Cc1ccccc1)C(N)=O` [Compound 34, [AHPPA^22]26RFa(20–26)] (H-GG[Ahppa(3S,4S)]SFRF-NH2), 2.85 µM. Same read-out and setting: for `N=C(N)NCCC[C@H](NC(=O)C[C@H](O)[C@H](Cc1ccccc1)NC(=O)[C@H](CO)NC(=O)[C@H](Cc1ccccc1)NC(=O)CNC(=O)CN)C(=O)N[C@@H](Cc1ccccc1)C(N)=O` [Compound 35, [AHPPA^24]26RFa(20–26)] (H-GGFS[Ahppa(3S,4S)]RF-NH2) the value was more than 10 µM; for `N=C(N)NCCC[C@H](NC(=O)[C@H](Cc1ccccc1)NC(=O)[C@H](CO)NC(=O)[C@H](Cc1ccccc1)NC(=O)CNC(=O)CN)C(=O)N[C@@H](Cc1ccccc1)[C@@H](O)CC(N)=O` [Compound 36, [AHPPA^26]26RFa(20–26)] (H-GGFSFR-X9), more than 10 µM; for `N=C(N)NCCC[C@H](NC(=O)[C@H](Cc1ccccc1)NC(=O)[C@H](CO)NC(=O)[C@@H](Cc1c[nH]c2ccccc12)NC(=O)CNC(=O)CN)C(=O)N[C@@H](Cc1ccccc1)C(N)=O` [Compound 37, [DTrp^22]26RFa(20–26)] (H-GG[dW]SFRF-NH2), 6.16 µM. On the same count and under the same terms, for `N=C(N)NCCC[C@H](NC(=O)[C@@H](Cc1c[nH]c2ccccc12)NC(=O)[C@H](CO)NC(=O)[C@H](Cc1ccccc1)NC(=O)CNC(=O)CN)C(=O)N[C@@H](Cc1ccccc1)C(N)=O` [Compound 38, [DTrp^24]26RFa(20–26)] (H-GGFS[dW]RF-NH2) the value was more than 10 µM. As to `N=C(N)NCCC[C@H](NC(=O)[C@H](Cc1ccccc1)NC(=O)[C@H](CO)NC(=O)[C@H]1Cc2ccccc2CN1C(=O)CNC(=O)CN)C(=O)N[C@@H](Cc1ccccc1)C(N)=O` [Compound 40, [DTic^22]26RFa(20–26)] (H-GG[dTic]SFRF-NH2), the concentration giving a half-maximal response (EC50) was 4.99 µM. Turning to `N=C(N)NCCC[C@H](NC(=O)[C@H]1Cc2ccccc2CN1C(=O)[C@H](CO)NC(=O)[C@H](Cc1ccccc1)NC(=O)CNC(=O)CN)C(=O)N[C@@H](Cc1ccccc1)C(N)=O` [Compound 41, [DTic^24]26RFa(20–26)] (H-GGFS[dTic]RF-NH2), the EC50 was 6.2 µM. Consider `N=C(N)NCCC[C@H](NC(=O)[C@H](Cc1ccccc1)NC(=O)[C@H](CO)NC(=O)[C@H](Cc1ccccc1)NC(=O)CNC(=O)CN)C(=O)N1Cc2ccccc2C[C@@H]1C(N)=O` [Compound 42, [DTic^26]26RFa(20–26)] (H-GGFSFR[dTic]-NH2), for which the 50% effective concentration (EC50) is more than 10 µM.

Take `N=C(N)NCCC[C@H](NC(=O)[C@H](Cc1ccccc1)NC(=O)[C@H](CO)NC(=O)[C@@H]1C[C@@H]2CCCC[C@@H]2N1C(=O)CNC(=O)CN)C(=O)N[C@@H](Cc1ccccc1)C(N)=O` [Compound 43, [Oic^22]26RFa(20–26)] (H-GG[Oic]SFRF-NH2): the concentration giving a half-maximal response (EC50) was more than 10 µM. Still for that read-out and setting: the same measure for `N=C(N)NCCC[C@H](NC(=O)[C@@H]1C[C@@H]2CCCC[C@@H]2N1C(=O)[C@H](CO)NC(=O)[C@H](Cc1ccccc1)NC(=O)CNC(=O)CN)C(=O)N[C@@H](Cc1ccccc1)C(N)=O` [Compound 44, [Oic^24]26RFa(20–26)] (H-GGFS[Oic]RF-NH2): more than 10 µM. The same measure, in the same setting: for `N=C(N)NCCC[C@H](NC(=O)[C@H](Cc1ccccc1)NC(=O)[C@H](CO)NC(=O)[C@H](Cc1ccccc1)NC(=O)CNC(=O)CN)C(=O)N1[C@H](C(N)=O)C[C@@H]2CCCC[C@@H]21` [Compound 45, [Oic^26]26RFa(20–26)] (H-GGFSFR[Oic]-NH2) the value was more than 10 µM; for `N=C(N)NCCC[C@H](NC(=O)[C@@H]1CSSC[C@H](NC(=O)CNC(=O)CN)C(=O)N[C@@H](CO)C(=O)N1)C(=O)N[C@@H](Cc1ccccc1)C(N)=O` [Compound 46, [Cys^22,24]26RFa(20–26)] (H-GGCSCRF-NH2; disulfide 3-5), more than 10 µM. Same read-out and setting: the same measure for `N=C(N)NCCC[C@@H]1NC(=O)[C@H](Cc2ccccc2)NC(=O)[C@H](CO)NC(=O)[C@@H](NC(=O)CNC(=O)CN)CSSC[C@@H](C(N)=O)NC1=O` [Compound 47, [Cys^22,26]26RFa(20–26)] (H-GGCSFRC-NH2; disulfide 3-7): more than 10 µM; for `N=C(N)NCCC[C@@H]1NC(=O)[C@@H](NC(=O)[C@H](CO)NC(=O)[C@H](Cc2ccccc2)NC(=O)CNC(=O)CN)CSSC[C@@H](C(N)=O)NC1=O` [Compound 48, [Cys^24,26]26RFa(20–26)] (H-GGFSCRC-NH2; disulfide 5-7): more than 10 µM.

Turning to `N=C(N)NCCC[C@H](NC(=O)[C@H](Cc1ccccc1)NC(=O)[C@H](CO)NC(=O)C(c1ccccc1)N1CCNCC1)C(=O)N[C@@H](Cc1ccccc1)C(N)=O` (some centres unmarked) [Compound 49, [Cmpi(Phg)^22]26RFa(22–26)] (X2-SFRF-NH2), the EC50 is more than 10 µM. With `N=C(N)NCCC[C@H](NC(=O)[C@H](Cc1ccccc1)NC(=O)[C@H](CO)NC(=O)C(c1ccccc1)N1CCNCC1)C(=O)N[C@@H](Cc1ccccc1)C(N)=O` (some centres unmarked) [Compound 50, [Cmpi(Phg)^22]26RFa(22–26)] (X2-SFRF-NH2), the EC50 was more than 10 µM. Still for that read-out and setting: the same measure for `N=C(N)NCCC[C@H](NC(=O)[C@H](Cc1ccccc1)NC(=O)[C@H](CO)NC(=O)C(c1ccc(F)cc1)N1CCNCC1)C(=O)N[C@@H](Cc1ccccc1)C(N)=O` (some centres unmarked) [Compound 51, [Cmpi(4-FPhg)^22]26RFa(22–26)] (X6-SFRF-NH2): 4.05 µM; for `N=C(N)NCCC[C@H](NC(=O)[C@H](Cc1ccccc1)NC(=O)[C@H](CO)NC(=O)C(c1ccc(F)cc1)N1CCNCC1)C(=O)N[C@@H](Cc1ccccc1)C(N)=O` (some centres unmarked) [Compound 52, [Cmpi(4-FPhg)^22]26RFa(22–26)] (X6-SFRF-NH2): 1.66 µM.

As for `N=C(N)NCCC[C@H](NC(=O)[C@H](Cc1ccccc1)NC(=O)[C@H](CO)NC(=O)C(c1cccc(F)c1)N1CCNCC1)C(=O)N[C@@H](Cc1ccccc1)C(N)=O` (some centres unmarked) [Compound 53, [Cmpi(3-FPhg)^22]26RFa(22–26)] (X3-SFRF-NH2), the half-maximal effective concentration (EC50) came to 3.56 µM.

Regarding `N=C(N)NCCC[C@H](NC(=O)[C@H](Cc1ccccc1)NC(=O)[C@H](CO)NC(=O)C(c1cccc(F)c1)N1CCNCC1)C(=O)N[C@@H](Cc1ccccc1)C(N)=O` (some centres unmarked) [Compound 54, [Cmpi(3-FPhg)^22]26RFa(22–26)] (X3-SFRF-NH2), the concentration giving a half-maximal response (EC50) was determined as 2.71 µM. Same read-out and setting: the same measure for `N=C(N)NCCC[C@H](NC(=O)[C@H](Cc1ccccc1)NC(=O)[C@H](CO)NC(=O)C(c1ccccc1F)N1CCNCC1)C(=O)N[C@@H](Cc1ccccc1)C(N)=O` (some centres unmarked) [Compound 55, [Cmpi(2-FPhg)^22]26RFa(22–26)] (X8-SFRF-NH2; N-terminus assumed): 2.48 µM.

The assay is the same for the next values; noted with them: single prototype curve, triplicate; basal [Ca2+]i mobilization; read-out: EC50 calculated from representative dose–response curves (Figure 3).
In the case of `N=C(N)NCCC[C@H](NC(=O)[C@H](Cc1ccccc1)NC(=O)[C@H](CO)NC(=O)CN(Cc1ccccc1)C(=O)CNC(=O)CN)C(=O)N[C@@H](Cc1ccccc1)C(N)=O` [Compound 31, [NPhe^22]26RFa(20–26)] (H-GG[Nphe]SFRF-NH2), the EC50 was 0.149 µM.
